Assay results taken from US20240309360A1, “TRANS-ACTIVATORS AND METHODS AND USE THEREOF” (THE GOVERNING COUNCIL OF THE UNIVERSITY OF TORONTO, priority 2021, published 2024).

Tests used:
[1] = system: EGFP reporter (7×TetO array, basal CMV promoter) in HEK293T reporter cell line; experiment: Arrayed recruitment assay, PYL1 fusions individually recruited to reporter via ABI1-dCas9 with ABA; format: cell-based, human; design: key to independently validated as transactivating fragment: Fragments marked with * were independently validated; details: for independently validated as transactivating fragment: fragment fused to PYL1, arrayed format; for activation of the EGFP reporter when individually tested: PYL1 fusion, ABA 48 hours, flow cytometry
Description: Treatment of cells with abscisic acid (ABA) induces an interaction between ABI1 and PYL1, thereby recruiting the potential transcriptional activator to a specific genomic locus defined by the guide RNA (gRNA). As a reporter, a HEK293T cell line that contains a stably integrated construct with a 7×TetO array and a basal CMV promoter driving the expression of EGFP was used (Gao et al., 2016). A monoclonal cell line that expresses ABI1-dCas9 and a single gRNA targeting TetO was generated by lentiviral infection.
Arrayed recruitment assays. Reporter cells stably co-expressing ABI-dCas9 and TetO gRNA were seeded either on 48-well or 96-well plates (Sarstedt) to reach 50-70% confluency on the day of transfection. 150 ng of each construct to be tested was transfected with polyethylenimine (PEI) at a ratio of 0.6 μl reagent. The day after transfection, recruitment was induced by treatment with ABA (100 μM). […] Inhibitors were dissolved in DMSO to a stock concentration of 10 mM. The final concentrations used were 100 nM for flavopiridol, 300 nM for JQ1, 1 μM for A-485, 2.5 μM for CX-4945 and 3 μM for AZ191. All inhibitors were a kind gift from the Structural Genomics Consortium (SGC). 48 hours after induction, cells were dissociated and resuspended in flow buffer using a liquid handing robot (TECAN) and analyzed by LSR Fortessa (BD). Cells were gated on high EBFP2 and RFP as a measure of gRNA and transfection control, respectively. Flow cytometry data was analyzed using FlowJo (v10).

[2] = system: EGFP reporter (7×TetO array, basal CMV promoter) in HEK293T reporter cell line; experiment: TAD-seq pooled activation screen of 60-aa fragments fused to PYL1; format: cell-based, human; details: for Hit high GFP: high GFP population (top 1%); for logFC high GFP / logFC medium GFP: log 2 fold change of counts, 100 μM ABA 48 hours; for logFC high GFP: sorted high GFP cells (top 1%) vs unsorted cells; for logFC medium GFP: sorted medium GFP cells (top 2-5%) vs unsorted cells; for Hit medium GFP: medium GFP population (top 2-5%)
Description: A fragment library of 75 activators identified in our screen was generated, using 60 amino-acid tiles every 20 aa such that every amino acid was represented by three different fragments (FIG. 3A). The pooled fragment library was fused to PYL1 and recruited to the same GFP reporter used in the original ORFeome screen (FIG. 3A). […] The GFP positive population was sorted into two independent replicates, and fragments in each population were quantified by sequencing. However, in contrast to the ORFeome screen, both high GFP cells (top 1%) and medium GFP cells (top 2-5%) were sorted to potentially identify transactivators of different strength.
Activation domain tiling library generation. A tiling library was generated from 75 proteins identified as activators in the ORFeome screen. Oligonucleotides containing a 5′ adapter […] (SEQ ID NO: 23) and a 3′ adapter […] (SEQ ID NO: 24) to generate a 5′ adapter ([…]) (SEQ ID NO: 11) and a 3′ adapter ([…]) (SEQ ID NO: 12) were synthesized as pooled libraries (Twist Biosciences). 6×50 μl PCR reactions were set up using NEBNext Ultra II Q5 master mix (New England Biolabs) with 5 nM oligos as template. PCR conditions were optimized to find the lowest cycle with a clean visible product at the expected 300 bp length. The thermocycling condition was an initial 30 s at 98° C., then 2 cycles of 98° C. for 10 s, 63° C. for 20 s, and 72° C. for 15 s, followed by 10 more cycles of 98° C. for 10 s and 72° C. for 30 s with a final extension at 72° C. for 5 min. Primers were designed to have Gateway compatible flanking sequences. The resulting libraries were gel extracted by QIAgen gel extraction kit after loading on a 2% TAE gel for 2 hrs at 60V and subsequently cloned into pDONR221 using 20 separate BP reactions in total of 5 μl reactions. The entry plasmid pool was transformed after an overnight reaction into DHSalpha competent E. coli and incubated overnight on LB agar plates containing kanamycin ([…]). Colonies were collected and plasmid DNA purified. 20 LR reactions were then set up as described in the previous section. Each reaction was transformed into NEB 10-beta chemically competent E. coli and grown on LB agar plates containing carbenicillin ([…]) overnight at 30° C. Colonies were counted to ensure >200-fold coverage at each step of cloning, pooled and maxiprepped.
Pooled activation screens. ORFeome and transactivation tiling libraries tagged at the C-terminus with PYL1 were packaged into lentiviral particles. A clonal EGFP reporter cell line stably co-expressing ABI-dCas9 and a gRNA targeting the promoter were transduced at low multiplicity of infection (MOI) with approximately 30% cell survival after puromycin (1 μg/mL) selection. Untransduced cells under the same condition were fully eliminated. Sufficient cells were transduced to maintain >500 fold coverage of the libraries. Recruitment was induced by treating cells with 100 μM abscisic acid (ABA, Sigma) for 48 hours. In parallel, a control batch of cells were treated with equal total volume of DMSO. Cells were then washed in PBS, treated with dissociation buffer (1 mM EDTA, 10 mM KCl, 150 mM NaCl, 5 mM sodium bicarbonate, 0.1% glucose) and resuspended in flow buffer (5 mM EDTA, 25 mM HEPES pH 7, 1% BSA, PBS). High GFP population for each library, top 1% for ORFeome and two bins of top 1% and the next 4% for the TAD screen, were sorted and their genomic DNA directly extracted using QIAmp DNA Blood Mini Kit (QIAGEN).
TAD sequencing. Performed nested PCR on the purified genomic DNA using primers targeting T7 promoter and PYL1 of the backbone vector in the first step creating a ˜470 bp product. Products of the first reaction were then pooled and amplified for an additional 10 steps using primers targeting outside the Gateway sites creating a ˜300 bp product. Libraries were quantified on Qubit dsDNA Broad Range kit and paired-end sequenced on an Illumina MIseq with a custom PAGE-purified R1 sequencing primer. […]

Substance | independently validated as transactivating fragment [1] | Hit high GFP [2] | logFC high GFP [2] | logFC medium GFP [2] | Hit medium GFP [2] | activation of the EGFP reporter when individually tested [1]
ATF6-2: 60-aa TAD-seq fragment of ATF6 (HRLDEDWDSALFAELGYFTDTDELQLEAANETYENNFDNLDFDLDLVPWESDIWDINNQI; listed as Homo sapiens) | ATF6-2* | hit | 4.688 | 1.477 | hit | 
ATXN7L3-1: 60-aa TAD-seq fragment of ATXN7L3 (MKMEEMSLSGLDNSKLEAIAQEIYADLVEDSCLGFCFEVHRAVKCGYFFLDDTDPDSMKD; listed as Homo sapiens) | 1* | hit | 1.638 | 1.684 | hit | 
BRD8-25: 60-aa TAD-seq fragment of BRD8 (GEELDFETVGDIIAIIEDKVDDHPEVLDVAAVEAALSFCEENDDPQSLPGPWEHPIQQER; listed as Homo sapiens) | BRD8-25* | hit | 1.567 | 1.834 | hit | 
C3orf62-12: 60-aa TAD-seq fragment of C3orf62 (QDSPFKEEAWALLMDKSPQKATDADPGSLKQAFDDHNIVETVLDLEEDYNVMTSFKYQIE; listed as Homo sapiens) [Fragment C3orf62-12] | 12* | hit | 6.493 | −0.6067 |  | 
CBX2: CBX-C domain of CBX2 (SASPPSTGQNPSVSVQTSQDWKPTRSLIEHVFVTDVTANLITVTVKESPTSVGFFNLRHY; listed as Homo sapiens) |  |  |  |  |  | the most potent activator
CBX8: CBX-C domain of CBX8 (RPSLIARIPVARILGDPEEESWSPSLTNLEKVVVTDVTSNFLTVTIKESNTDQGFFKEKR; listed as Homo sapiens) |  |  |  |  |  | activated the reporter weakly
CITED1-8: 60-aa TAD-seq fragment of CITED1 (ESLSPSAGAQSPAIIDSDPVDEEVLMSLVVELGLDRANELPELWLGQNEFDFTADFPSSC; listed as Homo sapiens) | 8* | hit | 6.826 | −1.166 |  | 
CITED2-12: 60-aa TAD-seq fragment of CITED2 (AMLPPNVIDTDFIDEEVLMSLVIEMGLDRIKELPELWLGQNEFDFMTDFVCKQQPSRVSC; listed as Homo sapiens) | 12* | hit | 6.148 | −0.9005 |  | 
FAM90A1-20: 60-aa TAD-seq fragment of FAM90A1 (HPAASHDGAQPLRVLFRRLENGRWSSSLLTAPSFHSPEKPGAFLAQSPHVSEKSEGPCVR; listed as Homo sapiens) | 20* | hit | 3.017 | 1.616 | hit | 
HOXB2: HOX family transcription factor tested as PYL1 fusion |  |  |  |  |  | characterized as activators
KLF7-1: 60-aa TAD-seq fragment of KLF7 (MDVLASYSIFQELQLVHDTGYFSALPSLEETWQQTCLELERYLQTEPRRISETFGEDLDC; listed as Homo sapiens) | KLF7-1* | hit | 5.998 | 1.29 | hit | 
SERTAD1-10: 60-aa TAD-seq fragment of SERTAD1 (IDTSMYDNELWAPASEGLKPGPEDGPGKEEAPELDEAELDYLMDVLVGTQALERPPGPGR; listed as Homo sapiens) |  |  | 0.2349 | 0.8385 | hit | 
SERTAD2-11: 60-aa TAD-seq fragment of SERTAD2 (SEAGTQKLDGPQESRADDSKLMDSLPGNFEITTSTGFLTDLTLDDILFADIDTSMYDFDP; listed as Homo sapiens) |  | hit | 2.48 | 1.822 | hit | 
SPDYE4-4: 60-aa TAD-seq fragment of SPDYE4 (SEEELEEELELERAPEPEDTWVVETLCGLKMKLKRKRASSVLPEHHEAFNRLLGDPVVQK; listed as Homo sapiens) |  | hit | 4.316 | 1.914 | hit | 
SS18L2-2: 60-aa TAD-seq fragment of SS18L2 (QETIQRLLEENDQLIRCIVEYQNKGRGNECVQYQHVLHRNLIYLATIADASPTSTSKAME; listed as Homo sapiens) |  |  | 1.012 | 1.166 | hit | 
YAF2-6: 60-aa TAD-seq fragment of YAF2 (EKKDKVEKEKSEKETTSKKNSHKKTRPRLKNVDRSSAQHLEVTVGDLTVIITDFKEKTKS; listed as Homo sapiens) |  | hit | 4.316 | 1.771 | hit | 
YAF2: YAF2_RYBP domain of YAF2; same SEQ ID NO as YAF2-7 (SHKKTRPRLKNVDRSSAQHLEVTVGDLTVIITDFKEKTKSPPASSAASADQHSQSGSSSD; listed as Homo sapiens) |  |  |  |  |  | robustly activated the reporter
ZXDC-13: 60-aa TAD-seq fragment of ZXDC (YLESGGSARTDYRAIQLAKEKKQRGAGSNAGASQSTQRKIKEGKMSPPHFHASQNSWLCG; listed as Homo sapiens) |  | hit | 2.377 | 1.734 | hit | 
ZXDC-16: 60-aa TAD-seq fragment of ZXDC (SLVVPSGGRPGPAPAAGVQCGAQGVQVQLVQDDPSGEGVLPSARGPATFLPFLTVDLPVY; listed as Homo sapiens) |  |  | 0.4785 | 0.7293 | hit | 
p300: known transcriptional activator p300 fused to PYL1 [reference compound] |  |  |  |  |  | robust induction of GFP
